± gives the standard deviation of the averaged measurements.
What was measured:
Conditions in all cases: 72 h
Caco-2 [1] = experiment: cell viability relative to DMSO; higher = less toxic
Calu-3 [2] = experiment: as above
HepG2 [3] = experiment: as above
U2OS [4] = experiment: as above
Vero E6 [5] = experiment: as above
Caco-2 [6] = experiment: relative viability EC50 (midpoint between 100% and the lowest measured viability); higher = less toxic
Calu-3 [7] = experiment: as above
HepG2 [8] = experiment: as above
U2OS [9] = experiment: as above
Vero E6 [10] = experiment: as above
Caco-2 [11] = experiment: drug sensitivity score (DSS) for viability; higher = more toxic; extreme values may be limits of the assay
Calu-3 [12] = experiment: as above
HepG2 [13] = experiment: as above
U2OS [14] = experiment: as above
Vero E6 [15] = experiment: as above

Compound | cell viability (Caco-2 [1]; 1 nM) | cell viability (Caco-2 [1]; 10 nM) | cell viability (Caco-2 [1]; 100 nM) | cell viability (Caco-2 [1]; 1000 nM) | cell viability (Caco-2 [1]; 10000 nM) | cell viability (Calu-3 [2]; 1 nM) | cell viability (Calu-3 [2]; 10 nM) | cell viability (Calu-3 [2]; 100 nM) | cell viability (Calu-3 [2]; 1000 nM) | cell viability (Calu-3 [2]; 10000 nM) | cell viability (HepG2 [3]; 1 nM) | cell viability (HepG2 [3]; 10 nM) | cell viability (HepG2 [3]; 100 nM) | cell viability (HepG2 [3]; 1000 nM) | cell viability (HepG2 [3]; 10000 nM) | cell viability (U2OS [4]; 1 nM) | cell viability (U2OS [4]; 10 nM) | cell viability (U2OS [4]; 100 nM) | cell viability (U2OS [4]; 1000 nM) | cell viability (U2OS [4]; 10000 nM) | cell viability (Vero E6 [5]; 1 nM) | cell viability (Vero E6 [5]; 10 nM) | cell viability (Vero E6 [5]; 100 nM) | cell viability (Vero E6 [5]; 1000 nM) | cell viability (Vero E6 [5]; 10000 nM) | relative viability EC50 (Caco-2 [6]) | relative viability EC50 (Calu-3 [7]) | relative viability EC50 (HepG2 [8]) | relative viability EC50 (U2OS [9]) | relative viability EC50 (Vero E6 [10]) | drug sensitivity score (Caco-2 [11]) | drug sensitivity score (Calu-3 [12]) | drug sensitivity score (HepG2 [13]) | drug sensitivity score (U2OS [14]) | drug sensitivity score (Vero E6 [15])
Cc1cc(SCc2sc(-c3ccc(C(F)(F)F)c(F)c3)nc2C)ccc1OCC(=O)O [GW-0742] | 99.9% | 101% | 89.1% | 106% | 87.2% | 95.1% | 94.8% | 92.5% | 90.5% | 98.3% | 102% | 74.6% | 94% | 90.1% | 99.9% | 102% | 103% | 97.9% | 104% | 99.7% | 96.3% | 101% | 96.7% | 98.3% | 99% | > 10 µM | > 10 µM | > 10 µM | > 10 µM | > 10 µM | 0 | 0 | 0 | 0 | 0
CC(C)(C(=O)O)c1ccc(C(=O)CCCN2CCC(OC(c3ccccc3)c3ccccc3)CC2)cc1 [carebastine] | 101% | 101% | 107% | 92.2% | 96.6% | 89.7% | 88.6% | 110% | 100% | 102% | 107% | 97.7% | 94.3% | 108% | 92.9% | 95.7% | 99.2% | 99.4% | 93.2% | 99.3% | 111% | 106% | 95.3% | 104% | 106% | > 10 µM | > 10 µM | > 10 µM | > 10 µM | > 10 µM | 0 | 0 | 0 | 0 | 0
COCC1(CO)C(=O)C2CCN1CC2 (stereo not given) [APR-246] | 99.5% | 94.7% | 95.1% | 94.2% | 94.6% | 96.7% | 87.5% | 111% | 90.4% | 94.5% | 93% | 99.7% | 96.6% | 112% | 91.8% | 100% | 94.9% | 99.8% | 96.3% | 99.5% | 97.1% | 99.3% | 96.6% | 97.8% | 93.1% | > 10 µM | > 10 µM | > 10 µM | > 10 µM | > 10 µM | 0 | 0 | 0 | 0 | 0
CN1CCN(c2ccc3[nH]c(-c4ccc5[nH]c(-c6ccc(O)cc6)nc5c4)nc3c2)CC1 [pibenzimol] | 98.6% | 88.8% | 98% | 100% | 103% | 108% | 93.8% | 106% | 116% | 122% | 101% | 97.4% | 81.2% | 64.1% | 42.7% | 103% | 97.2% | 101% | 100% | 93.8% | 100% | 100% | 96% | 98.9% | 98.3% | > 10 µM | > 10 µM | 0.35 µM | > 10 µM | > 10 µM | 0 | 0 | 8.8 | 0 | 0
CC(C)(C)NCC(O)COc1cccc2[nH]c(=O)[nH]c12 (stereo not given) | 96.7% | 100% | 96.5% | 97% | 97.9% | 94.9% | 101% | 88.6% | 106% | 106% | 97.7% | 93.3% | 105% | 110% | 113% | 96.8% | 97% | 97.4% | 97.9% | 101% | 98.7% | 97.2% | 97.1% | 103% | 105% | > 10 µM | > 10 µM | > 10 µM | > 10 µM | > 10 µM | 0 | 0 | 0 | 0 | 0
O=c1c(O[C@@H]2O[C@H](CO)[C@H](O)[C@H](O)[C@H]2O)c(-c2ccc(O)c(O)c2)oc2cc(O)cc(O)c12 [hyperin] | 104% | 93.3% | 99% | 107% | 105% | 96.9% | 86.3% | 102% | 104% | 98.9% | 84.8% | 95.7% | 87.3% | 103% | 97.9% | 99.5% | 97.3% | 101% | 98.4% | 100% | 98% | 97.2% | 94% | 97.7% | 108% | > 10 µM | > 10 µM | > 10 µM | > 10 µM | > 10 µM | 0 | 0 | 0 | 0 | 0
CC[C@@H]1C(=O)N(C)c2cnc(Nc3ccc(C(=O)NC4CCN(C)CC4)cc3OC)nc2N1C1CCCC1 [BI-2536] | 94.4% | 96.5% | 56.8% | 61.3% | 31.5% | 93.3% | 97.3% | 85.4% | 77.7% | 3.8% | 106% | 92.2% | 27.4% | 24.2% | 7.7% | 97% | 103% | 53.1% | 28% | 8.1% | 96.2% | 98.7% | 103% | 37.4% | 1.1% | 0.148 µM | 1.66 µM | 0.0445 µM | 0.132 µM | 0.805 µM | 13.6 | 8.6 | 26.1 | 19.8 | 12.8
COC(=O)[C@H](Cc1cccc(C(=N)N)c1)[C@@H](C)NC(=O)c1ccc(-c2cc[n+]([O-])cc2)cc1 [otamixaban] | 104% | 104% | 101% | 99.2% | 104% | 88.9% | 92% | 90.5% | 94.4% | 105% | 89.3% | 103% | 98.6% | 102% | 96.7% | 99.1% | 95.3% | 98.3% | 97.8% | 104% | 103% | 101% | 94.1% | 97.9% | 96.3% | > 10 µM | > 10 µM | > 10 µM | > 10 µM | > 10 µM | 0 | 0 | 0 | 0 | 0
O=C(CC12CC3CC(CC(C3)C1)C2)Nc1cccc2nc(NCCNCCO)ccc12 | 91.2% | 93.1% | 93.8% | 91.8% | 91.8% | 99% | 101% | 92.1% | 98.4% | 94.9% | 97.5% | 94.7% | 93.7% | 96.8% | 99.9% | 96.1% | 102% | 95.2% | 97.9% | 95.1% | 96% | 102% | 95.8% | 91.4% | 100% | > 10 µM | > 10 µM | > 10 µM | > 10 µM | > 10 µM | 0 | 0 | 0 | 0 | 0
CC(C)(C)NCC(O)c1cc(O)cc(O)c1 (stereo not given) [TERBUTALINE HEMISULFATE] | 99% | 104% | 88.7% | 91.8% | 98.2% | 104% | 106% | 99.7% | 95% | 98.3% | 109% | 102% | 106% | 94.5% | 92.3% | 102% | 98.6% | 105% | 100% | 106% | 105% | 101% | 101% | 105% | 98.9% | > 10 µM | > 10 µM | > 10 µM | > 10 µM | > 10 µM | 0.6 | 0 | 0 | 0 | 0
O=C(O)P(=O)(O)O [foscarnet] | 97.4% | 103% | 97.5% | 102% | 102% | 110% | 105% | 106% | 91.9% | 93.4% | 102% | 105% | 99.9% | 104% | 96.7% | 104% | 100% | 99.2% | 99.1% | 102% | 106% | 104% | 98.3% | 99.5% | 101% | > 10 µM | > 10 µM | > 10 µM | > 10 µM | > 10 µM | 0 | 0 | 0 | 0 | 0
CN(C)C(=O)Oc1ccc[n+](C)c1 [mestinon] | 91.5% | 95.9% | 107% | 99.8% | 99.1% | 96.5% | 95.1% | 102% | 93.7% | 94.5% | 95.1% | 93% | 101% | 91.2% | 96.3% | 104% | 102% | 106% | 98.6% | 104% | 99.8% | 108% | 102% | 104% | 93.5% | > 10 µM | > 10 µM | > 10 µM | > 10 µM | > 10 µM | 0 | 0 | 0 | 0 | 0
C=CCN1C[C@H](C)N([C@H](c2ccc(C(=O)N(CC)CC)cc2)c2cccc(O)c2)C[C@H]1C [BW-373U86] | 101% | 102% | 96.1% | 96.7% | 95.2% | 92.9% | 103% | 107% | 102% | 101% | 95.5% | 93.7% | 101% | 86.9% | 96.3% | 100% | 102% | 96% | 104% | 97.8% | 105% | 100% | 105% | 94.9% | 104% | > 10 µM | > 10 µM | > 10 µM | > 10 µM | > 10 µM | 0 | 0 | 0 | 0 | 0
O=C(O)/C=C\c1c[nH]cn1 [cis-Urocanic acid] | 93.8 ± 14% | 96.7 ± 3.2% | 92.3 ± 7.2% | 91.5 ± 8.9% | 98.1 ± 5.9% | 107 ± 4.3% | 108 ± 11% | 100 ± 4.8% | 98 ± 8.6% | 96.6 ± 3% | 97.1% | 95.9% | 88.1% | 102% | 95.2% | 99.2 ± 3% | 97.5 ± 2.8% | 97.7 ± 1.1% | 97.4 ± 4% | 100 ± 1.8% | 99.5 ± 3.1% | 99.8% | 100 ± 4.2% | 100.8 ± 0.64% | 99 ± 1.8% | > 10 µM | > 10 µM | > 10 µM | > 10 µM | > 10 µM | 1.25 ± 1.8 | 0 | 0 | 0 | 0
Cn1c(=O)c2c(ncn2CCO)n(C)c1=O [etofylline] | 103% | 98% | 90.5% | 102% | 97.6% | 97.8% | 99.6% | 97% | 98.2% | 102% | 101% | 110% | 88.8% | 96.6% | 102% | 102% | 97.4% | 97% | 98.8% | 98.4% | 104% | 98% | 103% | 103% | 103% | > 10 µM | > 10 µM | > 10 µM | > 10 µM | > 10 µM | 0 | 0 | 0 | 0 | 0

From the supplement of paper PMC13380429
